Where two headings read alike, the source gives them in different places. Where a SMILES comes first, the peptide text is derived from it. [ ]: non-standard residue; d: D form. The star is where a group is joined. Sta = CC(C)C[C@H](N)[C@@H](O)CC(=O)O; Isovaleryl = CC(C)CC(=O)*
Molecular target: T1, recombinant cathepsin L2 (Homo sapiens, UniProt O60911)
T1 construct: extra Met before Leu114 (ATG of primer L2-1; own reading of the primer) (N); made in house; host or cells: E. coli BL21 (DE3)
Assay type: biochemical
Conditions: FIG. 3(B)
Experimental: The enzyme activity of purified cathepsin L2 produced in E. coli was measured by using 20 μM Z-Phe-Arg-AMC or Z-Arg-Arg-AMC (Bachem) as the substrate and following the procedure described by Barrett and Kirschke (Barrett, A. J., et al., Methods Enzymol., 80: 535-561, 1981) with minor modifications. Assays were performed at 30° C. in 100 mM sodium acetate buffer (pH 4.5) containing 10 mM dithiothreitol (DTT) and 2 mM EDTA. Substrate hydrolysis was monitored in a Cytofluor 2350 fluorometer (Millipore) at excitation and emission wavelengths of 360 and 460 nm, respectively. For inhibition assays, the reaction mixture containing recombinant cathepsin L2 was preincubated with 20 μM E-64 (Sigma) at 30° C. for 15 min, and the remaining activity for recombinant cathepsin L2 was determined using the fluorogenic substrate Z-Phe-Arg-AMC as described herein previously. As a positive control of enzyme assays, recombinant cathepsin O produced in E. coli (Velasco, G., et al., J. Biol. Chem., 269: 27136-27142, 1994) was used.

[1] = inhibitors of metalloproteinases, serine-proteinases, aspartyl-proteinases, concentration not given

T1 sequence (O60911 114-334): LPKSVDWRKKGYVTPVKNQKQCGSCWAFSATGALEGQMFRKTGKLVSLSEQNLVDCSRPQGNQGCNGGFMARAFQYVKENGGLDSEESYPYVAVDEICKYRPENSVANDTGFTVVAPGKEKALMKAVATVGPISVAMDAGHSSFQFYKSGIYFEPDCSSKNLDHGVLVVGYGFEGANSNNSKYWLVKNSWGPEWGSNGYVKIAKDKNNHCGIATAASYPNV

| Compound | proteolytic activity of cathepsin L2 against Z-Phe-Arg-AMC in the presence of inhibitor (preincubated with 20 μM E-64 at 30° C. for 15 min, 100 mM sodium acetate buffer pH 4.5, 10 mM DTT, 2 mM EDTA) | proteolytic activity of cathepsin L2 against Z-Phe-Arg-AMC in the presence of inhibitor [1] |
| --- | --- | --- |
| CC(C)C[C@H](NC(=O)[C@H]1O[C@@H]1C(=O)O)C(=O)NCCCCN=C(N)N (relative stereo) [Clone E-64, trans-epoxysuccinyl-L-leucylamido-(4-guanidino)butane] | abolished |  |
| CC(C)CC(=O)N[C@H](C(=O)N[C@H](C(=O)N[C@@H](CC(C)C)[C@@H](O)CC(=O)N[C@@H](C)C(=O)N[C@@H](CC(C)C)[C@@H](O)CC(=O)O)C(C)C)C(C)C [pepstatin A] (Isovaleryl-VV[Sta]A[Sta]-OH) |  | not abolished |
| O=S(=O)(F)Cc1ccccc1 [phenylmethylsulfonyl fluoride] |  | not abolished |

Reference: patent US6800473B1, “Human cathepsin L2 protein, gene encoding said protein and use thereof” (Daiichi Fine Chemical Co., Ltd., priority 1998, dated 2004)
